Test results published in patent publication US20120264735A1 (priority 2009, published 2012).
pIC50: −log10 of the molar value.

What follows are molecules tested against T1, c-Met kinase (recombinant c-Met) (Homo sapiens, UniProt P08581) (assay: In vitro kinase assay I (homogeneous time-resolved fluorescence tyrosine kinase assay)).
T1 construct: 0.27 nM recombinant c-Met
T1 sequence (P08581 25-1390): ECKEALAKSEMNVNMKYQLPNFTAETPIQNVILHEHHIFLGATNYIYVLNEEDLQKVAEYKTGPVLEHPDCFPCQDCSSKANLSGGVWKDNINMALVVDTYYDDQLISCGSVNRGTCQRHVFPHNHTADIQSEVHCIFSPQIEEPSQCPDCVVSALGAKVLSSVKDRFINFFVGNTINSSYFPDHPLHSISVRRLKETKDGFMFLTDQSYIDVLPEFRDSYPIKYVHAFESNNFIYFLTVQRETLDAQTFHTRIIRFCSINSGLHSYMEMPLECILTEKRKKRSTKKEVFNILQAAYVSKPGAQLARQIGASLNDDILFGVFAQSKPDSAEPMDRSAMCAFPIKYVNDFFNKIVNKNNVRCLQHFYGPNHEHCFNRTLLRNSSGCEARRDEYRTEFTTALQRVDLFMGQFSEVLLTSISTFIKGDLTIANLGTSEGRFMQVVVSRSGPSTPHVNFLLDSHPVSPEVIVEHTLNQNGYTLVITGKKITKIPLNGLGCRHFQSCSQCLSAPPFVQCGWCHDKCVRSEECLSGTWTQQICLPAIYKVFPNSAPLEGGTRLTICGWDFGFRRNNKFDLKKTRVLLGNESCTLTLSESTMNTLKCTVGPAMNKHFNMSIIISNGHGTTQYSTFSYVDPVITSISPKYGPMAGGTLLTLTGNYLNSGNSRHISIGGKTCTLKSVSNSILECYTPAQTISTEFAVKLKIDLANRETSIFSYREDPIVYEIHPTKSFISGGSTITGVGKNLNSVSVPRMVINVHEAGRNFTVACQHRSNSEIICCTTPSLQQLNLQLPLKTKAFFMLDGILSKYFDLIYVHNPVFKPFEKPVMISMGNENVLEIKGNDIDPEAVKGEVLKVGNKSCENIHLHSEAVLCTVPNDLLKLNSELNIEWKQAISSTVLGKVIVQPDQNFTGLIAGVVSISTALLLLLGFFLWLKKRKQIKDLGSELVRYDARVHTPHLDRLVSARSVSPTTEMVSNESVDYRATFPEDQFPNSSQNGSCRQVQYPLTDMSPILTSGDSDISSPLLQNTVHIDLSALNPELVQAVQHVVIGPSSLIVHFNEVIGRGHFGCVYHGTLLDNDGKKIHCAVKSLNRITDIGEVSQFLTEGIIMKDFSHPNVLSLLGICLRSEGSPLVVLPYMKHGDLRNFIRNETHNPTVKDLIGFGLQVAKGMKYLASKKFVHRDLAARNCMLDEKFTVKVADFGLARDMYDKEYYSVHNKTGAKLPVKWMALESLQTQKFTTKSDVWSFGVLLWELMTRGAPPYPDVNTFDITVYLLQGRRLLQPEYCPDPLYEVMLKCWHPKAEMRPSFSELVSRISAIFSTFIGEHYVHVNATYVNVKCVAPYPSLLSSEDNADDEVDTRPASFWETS
Type: biochemical
Procedure, shortened: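 Biotinylated peptide (0.5 μM) phosphorylated by 0.2 nM recombinant c-Met with 50 μM MgATP, 60 min at room temperature, pH 7.4, 5% DMSO. EDTA stop; HTRF read with Eu-anti-phosphotyrosine antibody and streptavidin-APC. IC50 from 4-parameter logistic fit.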
With `CCOC(=O)Nc1cccc(Cc2nn(-c3ccccc3)ccc2=O)c1` [Example 642, Ethyl {3-[(4-oxo-1-phenyl-1,4-dihydropyridazin-3-yl)methyl]phenyl}carbamate] the pIC50 was 6.00 to 7.00. With `Cn1cc(-n2ccc(=O)c(Cc3cccc(-c4ncc(O[C@H]5CC[C@H](O)CC5)cn4)c3)n2)cn1` [Example 747, 3-(3-{5-[(trans-4-hydroxycyclohexyl)oxy]pyrimidin-2-yl}benzyl)-1-(1-methyl-1H-pyrazol-4-yl)pyridazin-4(1H)-one] the pIC50 was > 7.00. With `COCCOC(=O)Nc1cccc(Cc2nn(-c3cncc(C#N)c3)ccc2=O)c1` [Example 129, 2-methoxyethyl (3-{[1-(5-cyanopyridin-3-yl)-4-oxo-1,4-dihydropyridazin-3-yl]methyl}phenyl)carbamate] the pIC50 was > 7.00. With `CCCOC(=O)Nc1cccc(Cc2nn(-c3cc(F)c(Br)c(F)c3)ccc2=O)c1` [Example 16, propyl (3-{[1-(4-bromo-3,5-difluorophenyl)-4-oxo-1,4-dihydropyridazin-3-yl]methyl}phenyl)carbamate] the pIC50 was > 7.00. For `[2H]C([2H])([2H])n1cc(-n2ccc(=O)c(C(F)c3cccc(-c4ncc(OCC)cn4)c3)n2)cn1` (racemic) [Example 657, rac-3-[[3-(5-Ethoxypyrimidin-2-yl)phenyl](fluoro)methyl]-1-(1-methyl-1H-pyrazol-4-yl)pyridazin-4(1H)-one-d3], the pIC50 was > 7.00. In the case of `CCOC(=O)Nc1cccc(Cc2nn(-c3cnn(CC)c3)ccc2=O)c1` [Example 109, ethyl (3-{[1-(1-ethyl-1H-pyrazol-4-yl)-4-oxo-1,4-dihydropyridazin-3-yl]methyl}phenyl)carbamate], the pIC50 was > 7.00. In the case of `Cn1cc(-n2ccc(=O)c(Cc3cccc(NC(=O)OCC4CCCC4)c3)n2)cn1` [Example 539, cyclopentylmethyl (3-{[1-(1-methyl-1H-pyrazol-4-yl)-4-oxo-1,4-dihydropyridazin-3-yl]methyl}phenyl)carbamate], the pIC50 was > 7.00. Work on `CC(C)COC(=O)Nc1cccc(Cc2nn(-c3cccc(-c4ccncc4)c3)ccc2=O)c1` [Example 730, 2-methylpropyl (3-{[4-oxo-1-(3-pyridin-4-ylphenyl)-1,4-dihydropyridazin-3-yl]methyl}phenyl) carbarnate] yielded a pIC50 of 6.00 to 7.00. `CC(c1cccc(-c2ncc(Br)cn2)c1)c1nn(-c2cnn(C)c2)ccc1=O` (single isomer, unassigned) [Example 242, 3-{(1R or S)-1-[3-(5-bromopyrimidin-2-yl)phenyl]ethyl}-1-(1-methyl-1H-pyrazol-4-yl)pyridazin-4(1H)-one] was tested, and the pIC50 was > 7.00. For `CNC(=O)c1cnc(-c2cccc(Cc3nn(-c4cnn(C)c4)ccc3=O)c2)nc1` [Example 485, N-methyl-2-(3-{[1-(1-methyl-1H-pyrazol-4-yl)-4-oxo-1,4-dihydro-pyridazin-3-yl]methyl}phenyl)pyrimidine-5-carboxamide], the pIC50 was > 7.00. `CC(c1cccc(-c2nccc(C(C)(C)O)n2)c1)c1nn(-c2cnn(C)c2)ccc1=O` (single isomer, unassigned) [Example 694, 3-[(1R or S)-1-{3-[4-(2-hydroxypropan-2-yl)pyrimidin-2-yl]phenyl}ethyl]-1-(1-methyl-1H-pyrazol-4-yl)pyridazin-4(1H)-one] was tested, and the pIC50 was 6.00 to 7.00. `CCCn1cnc(-c2cccc(Cc3nn(-c4ccc(F)c(F)c4)ccc3=O)c2)n1` [Example 80, 1-(3,4-difluorophenyl)-3-[3-(1-propyl-1H-1,2,4-triazol-3-yl)benzyl]pyridazin-4(1H)-one] was tested, and the pIC50 was > 7.00. For `O=c1ccn(-c2cc(F)cc(F)c2)nc1Cc1cccc(-c2ncc(OC3COC3)cn2)c1` [Example 330], the pIC50 was > 7.00. `CCOc1cnc(-c2cccc(C(C)c3nn(-c4cnn(CC)c4)ccc3=O)c2)nc1` (single isomer, unassigned) [Example 245, 3-{(1S or R)-1-[3-(5-ethoxypyrimidin-2-yl)phenyl]ethyl}-1-(1-ethyl-1H-pyrazol-4-yl)pyridazin-4(1H)-one] was tested, and the pIC50 was 6.00 to 7.00.
